Experimental data: ChEMBL document CHEMBL5370525, “Antibiotics with novel mode of action as new weapons to fight antimicrobial resistance” (Eur J Med Chem, 2023)
Values after ≈ are worked out from the molar mass of the structure shown.

Columns and labels:
[1] = Cmax in mouse at 0.3 mg/kg, po incubated for 24 hrs by LC-MS-MS analysis; type: ADME, organism-based; set-up: dose 0.3 mg/kg, time 24 hrs, route po; conditions: in vivo
[2] = Cmax in mouse at 1 mg/kg, po incubated for 24 hrs by LC-MS-MS analysis; type: ADME, organism-based; set-up: time 24 hrs, dose 1 mg/kg, route po; conditions: in vivo
[3] = AUC (0 to t) in mouse at 1 mg/kg, po incubated for 24 hrs by LC-MS-MS analysis; type: ADME, organism-based; set-up: dose 1 mg/kg, time 24 hrs, route po; conditions: in vivo
[4] = Elimination half life in mouse at 0.3 to 1 mg/kg, po incubated for 24 hrs by LC-MS/MS analysis; type: ADME, organism-based; conditions: in vivo, dose 0.3-1 mg/kg, read-out: beta t1/2 (converted)
[5] = Plasma protein binding in human at 0.2 to 10 ug/ml by equilibrium dialysis; type: ADME, cell-free; conditions: at 0.2 to 10 µg/mL, dose 0.2-10 µg/ml, read-out: PPB
Staphylococcus aureus [6] = experiment: Antibacterial activity against Staphylococcus aureus smith infected oral dosed CD-1 mouse; type: functional
[7] = AUC (0 to t) in mouse at 0.6 mg/kg, po incubated for 24 hrs by LC-MS-MS analysis; type: ADME, organism-based; set-up: dose 0.6 mg/kg, time 24 hrs, route po; conditions: in vivo
[8] = Plasma protein binding in Sprague-Dawley rat at 0.2 to 10 ug/ml by equilibrium dialysis; type: ADME, cell-free; conditions: at 0.2 to 10 µg/mL, dose 0.2-10 µg/ml, read-out: PPB
Staphylococcus aureus [9] = experiment: Antibacterial activity against Staphylococcus aureus smith infected CD-1 mouse assessed as survival rate at 1 mg/kg, po relative to control; type: functional
[10] = AUC (0 to t) in mouse at 0.3 mg/kg, po incubated for 24 hrs by LC-MS-MS analysis; type: ADME, organism-based; set-up: dose 0.3 mg/kg, time 24 hrs, route po; conditions: in vivo
[11] = Plasma protein binding in dog at 0.2 to 10 ug/ml by equilibrium dialysis; type: ADME, cell-free, Canis lupus familiaris; conditions: at 0.2 to 10 µg/mL, dose 0.2-10 µg/ml, read-out: PPB
[12] = Plasma protein binding in mouse at 0.2 to 10 ug/ml by equilibrium dialysis; type: ADME, cell-free; conditions: at 0.2 to 10 µg/mL, dose 0.2-10 µg/ml, read-out: PPB
Staphylococcus aureus [13] = experiment: Post antibiotic effect against methicillin sensitive Staphylococcus aureus 29213 at 32 times of MIC incubated for 4 hrs by; type: functional
[14] = Cmax in mouse at 0.6 mg/kg, po incubated for 24 hrs by LC-MS-MS analysis; type: ADME, organism-based; set-up: dose 0.6 mg/kg, time 24 hrs, route po; conditions: in vivo
Staphylococcus aureus [15] = experiment: Antibacterial activity against Staphylococcus aureus clinical isolate assessed as bacterial growth inhibtion by CLSI-based broth microdilution method; type: functional
Staphylococcus aureus [16] = experiment: Post antibiotic effect against methicillin sensitive Staphylococcus aureus 29213 at 128 times of MIC incubated for 4 hrs by; type: functional
Clostridioides difficile [17] = experiment: Antibacterial activity against Clostridium difficile clinical isolates assessed as inhibition of bacterial growth incubated for 48 hrs by CLSI-based assay; type: functional
Clostridioides difficile [18] = experiment: Antibacterial activity against Clostridium difficile clinical isolates assessed as inhibition of bacterial growth; type: functional
Clostridioides difficile [19] = experiment: Antibacterial activity against Clostridium difficile clinical isolates assessed as inhibition of bacterial growth incubated for 44 hrs by CLSI-based broth microdilution assay; type: functional
Acinetobacter baumannii = experiment: Antibacterial activity against Acinetobacter baumannii clinical isolates assessed as inhibition of bacterial growth incubated for 44 hrs by CLSI-based broth microdilution assay; type: functional
Actinomyces sp. = experiment: Antibacterial activity against Actinomyces sp. clinical isolates assessed as inhibition of bacterial growth incubated for 48 hrs by CLSI-based Serial 2-fold dilution; type: functional
[20] = Binding affinity to N-terminal His-tagged Full-length human mitochondrial MetRS1 expressed in Escherichia coli assessed as inhibition constant by tRNA aminoacylation/ATP:PPi assay; type: mitochondria, Mitochondria
Enterococcus faecium = experiment: Antibacterial activity against Vancomycin-resistant Enterococcus faecium clinical isolates assessed as inhibition of bacterial growth incubated for 44 hrs by CLSI-based broth microdilution assay; type: functional
[21] = Binding affinity to N-terminal His-tagged Full-length Streptococcus pneumoniae MetRS1 expressed in Escherichia coli assessed as inhibition constant by tRNA aminoacylation/ATP:PPi assay
[22] = Oral bioavailability in Sprague-Dawley rat; type: ADME, organism-based; conditions: in vivo
Staphylococcus aureus [23] = experiment: Antibacterial activity against Meticillin-resistant Staphylococcus aureus clinical isolates assessed as inhibition of bacterial growth incubated for 44 hrs by CLSI-based broth microdilution assay; type: functional
Klebsiella pneumoniae = experiment: Antibacterial activity against Klebsiella pneumoniae clinical isolates assessed as inhibition of bacterial growth incubated for 44 hrs by CLSI-based broth microdilution assay; type: functional
Bifidobacterium sp. = experiment: Antibacterial activity against Bifidobacterium sp. clinical isolates assessed as inhibition of bacterial growth incubated for 48 hrs by CLSI-based Serial 2-fold dilution; type: functional
[24] = Oral bioavailability in Beagle dog; type: ADME, organism-based, Canis lupus familiaris; conditions: in vivo
Lactobacillus sp. = experiment: Antibacterial activity against Lactobacillus sp. clinical isolates assessed as inhibition of bacterial growth incubated for 48 hrs by CLSI-based Serial 2-fold dilution; type: functional
Pseudomonas aeruginosa = experiment: Antibacterial activity against Pseudomonas aeruginosa clinical isolates assessed as inhibition of bacterial growth incubated for 44 hrs by CLSI-based broth microdilution assay; type: functional
[25] = Binding affinity to N-terminal His-tagged Full-length Staphylococcus aureus MetRS1 expressed in Escherichia coli assessed as inhibition constant by tRNA aminoacylation/ATP:PPi assay
[26] = Binding affinity to N-terminal His-tagged Full-length human cytoplasmic MetRS2 expressed in Escherichia coli assessed as inhibition constant by tRNA aminoacylation/ATP:PPi assay; type: subcellular, Cytoplasm
[27] = Binding affinity to N-terminal His-tagged Full-length Haemophilus influenzae MetRS2 expressed in Escherichia coli assessed as inhibition constant by tRNA aminoacylation/ATP:PPi assay
[28] = Oral bioavailability in hamster; type: ADME, organism-based, Mesocricetus auratus; conditions: in vivo
Escherichia coli = experiment: Antibacterial activity against Escherichia coli clinical isolates assessed as inhibition of bacterial growth incubated for 44 hrs by CLSI-based broth microdilution assay; type: functional
[29] = Binding affinity to N-terminal His-tagged Full-length Escherichia coli MetRS2 expressed in Escherichia coli assessed as inhibition constant by tRNA aminoacylation/ATP:PPi assay
[30] = Binding affinity to N-terminal His-tagged Full-length Clostridium difficile MetRS1 expressed in Escherichia coli assessed as inhibition constant by tRNA aminoacylation/ATP:PPi assay; set-up: species or system Clostridioides difficile
[31] = Drug absorption in Syrian hamster infected with Clostridioides difficile at 75 mg/kg, po by LC-MS analysis; type: ADME, organism-based, Mesocricetus auratus; conditions: in vivo, read-out: Drug absorption
[32] = Binding affinity to recombinant Clostridium difficile 630 DNA polymerase IIIC expressed in Escherichia coli Rosetta DE3pLysS cells assessed as inhibition constant incubated for 20 mins; set-up: species or system Clostridioides difficile 630
[33] = Toxicity in Syrian hamster infected with clindamycin resistant Clostridium difficile ATCC 43596 assessed as survival rate at 5 mg/kg, po administered twice a day and measured after 33 days; type: organism-based, Mesocricetus auratus; conditions: in vivo, 792 h, time 33 day
[34] = Toxicity in Syrian hamster infected with clindamycin resistant Clostridium difficile ATCC 43596 assessed as animal survival at 5 mg/kg, po administered twice a day and measured after 25 days; type: organism-based, Mesocricetus auratus; conditions: in vivo, 600 h, time 25 day
[35] = Toxicity in Syrian hamster infected with clindamycin resistant Clostridium difficile ATCC 43596 assessed as survival rate at 0.5 mg/kg, po administered twice a day and measured after 33 days; type: organism-based, Mesocricetus auratus; conditions: in vivo, 792 h, time 33 day

Cc1c(CN(C)C(=O)/C=C/c2cnc3c(c2)CCC(=O)N3COP(=O)(O)O)oc2ccccc12 [AFABICIN]
Cmax [1]: 154 ng/mL
Cmax [2]: 304 ng/mL
AUC(0-t) at 24 h [3]: 1030 ng·h/mL
half-life [4]: 5 h
fraction unbound [5]: < 0.05
ED50 (Staphylococcus aureus [6]): 0.15 mg/kg
AUC(0-t) at 24 h [7]: 196 ng·h/mL
fraction unbound [8]: < 0.05
survival at 1 mg/kg (Staphylococcus aureus [9]): 100%
AUC(0-t) at 24 h [10]: 367 ng·h/mL
fraction unbound [11]: < 0.05
fraction unbound [12]: < 0.05
PAE (Staphylococcus aureus [13]): 0.1 h
Cmax [14]: 196 ng/mL
MIC90 (Staphylococcus aureus [15]): < 0.015 µg/mL
PAE (Staphylococcus aureus [16]): 1.1 h

Cc1ncc([N+](=O)[O-])n1CCO [METRONIDAZOLE]
MIC50 (Clostridioides difficile [17]): 1 µg/mL (≈ 5.84 µM)
MIC (Clostridioides difficile [18]): 0.15 µg/mL (≈ 0.876 µM)

CN[C@H](CC(C)C)C(=O)N[C@H]1C(=O)N[C@@H](CC(N)=O)C(=O)N[C@H]2C(=O)N[C@H]3C(=O)N[C@H](C(=O)N[C@H](C(=O)O)c4cc(O)cc(O)c4-c4cc3ccc4O)[C@H](O)c3ccc(c(Cl)c3)Oc3cc2cc(c3O[C@@H]2O[C@H](CO)[C@@H](O)[C@H](O)[C@H]2O[C@H]2C[C@](C)(N)[C@H](O)[C@H](C)O2)Oc2ccc(cc2Cl)[C@H]1O [VANCOMYCIN]
MIC (Clostridioides difficile [19]): 0.25 µg/mL (≈ 0.173 µM)
MIC50 (Clostridioides difficile [17]): 1 µg/mL (≈ 0.69 µM)
MIC (Clostridioides difficile [18]): 0.25 µg/mL (≈ 0.173 µM)

O=c1cc(NCCCN[C@@H]2CCOc3c(Br)cc(Br)cc32)[nH]c2ccsc12 [CRS-3123]
MIC (Acinetobacter baumannii): > 32 µg/mL
MIC (Actinomyces sp.): > 32 µg/mL
Ki [20]: 28 nM
MIC (Enterococcus faecium): < 0.004 µg/mL
Ki [21]: 0.08 nM
bioavailability [22]: < 1%
MIC (Staphylococcus aureus [23]): 0.015 µg/mL (≈ 0.0292 µM)
MIC (Klebsiella pneumoniae): > 32 µg/mL
MIC (Bifidobacterium sp.): > 32 µg/mL
bioavailability [24]: < 1%
MIC (Lactobacillus sp.): > 32 µg/mL
MIC (Pseudomonas aeruginosa): > 32 µg/mL
Ki [25]: 0.017 nM
Ki [26]: > 20000 nM
MIC (Clostridioides difficile [19]): 0.5 µg/mL (≈ 0.974 µM)
Ki [27]: 178 nM
bioavailability [28]: 0.6%
MIC (Escherichia coli): > 32 µg/mL
Ki [29]: 1900 nM
Ki [30]: 0.02 nM

O=c1[nH]c(NCc2ccc(Cl)c(Cl)c2)nc2ncn(CCN3CCOCC3)c12 [IBEZAPOLSTAT]
Fa [31]: 5%
MIC50 (Clostridioides difficile [17]): 2 µg/mL (≈ 4.72 µM)
MIC (Clostridioides difficile [18]): 1 µg/mL (≈ 2.36 µM)
Ki [32]: 325 nM

Cl.Cl.O=c1cc(NCCCN[C@@H]2CCOc3c(Br)cc(Br)cc32)[nH]c2ccsc12
Survival [33]: 75%
Activity [34]: Toxic
Survival [35]: 62%
